Data reported in DBAASP.
Converted amounts (≈) assume the structure as drawn. “And” between values parts separate entries of the source, which are not always exact repeats. Identical values can stand only once.

Experiments:
Experiment in all cases: ≥ marks a high value that may be exact or a test limit, other limits are often not marked, values filed in µg/mL are converted to µM
[1] = system: Escherichia coli ATCC 25922
[2] = system: Escherichia coli ATCC 54127
[3] = system: Escherichia coli NCTC 10418
[4] = system: Pseudomonas aeruginosa ATCC 27853
[5] = system: Pseudomonas aeruginosa CIP A22
[6] = system: Staphylococcus aureus ATCC 25923
[7] = system: Staphylococcus aureus NCTC 10788
[8] = system: Bacillus subtilis KCTC 1918
[9] = system: Escherichia coli KCTC 1682
[10] = system: Listeria monocytogenes KCTC 3710
[11] = system: Pseudomonas aeruginosa KCTC 1637
[12] = system: Salmonella typhimurium KCTC 1926
[13] = system: Staphylococcus aureus KCTC 1621
[14] = system: Trichosporon beigelii KCTC 7707
[15] = system: Klebsiella pneumoniae ST258
[16] = system: Mycobacterium tuberculosis H37Rv
[17] = system: Mycobacterium tuberculosis
[18] = system: Escherichia coli ATCC 11303
Citrobacter koseri = system: Citrobacter koseri
Escherichia coli BL21 = system: Escherichia coli BL21
Escherichia coli JM109 = system: Escherichia coli JM109
[19] = system: Klebsiella pneumoniae CCRC 10694
Pseudomonas aeruginosa = system: Pseudomonas aeruginosa
Salmonella enterica = system: Salmonella enterica
[20] = system: Salmonella typhimurium CCRC 12947
[21] = system: Staphylococcus aureus CCRC 12652
[22] = system: Staphylococcus aureus CCRC 15211
Staphylococcus xylosus = system: Staphylococcus xylosus
[23] = system: Streptococcus alactolyticus
[24] = system: Vibrio parahaemolyticus CCRC 10806
[25] = system: Clavibacter michiganensis subsp. michiganensis KACC 20122
[26] = system: Bacillus subtilis MTCC 14416
[27] = system: Enterococcus faecalis ATCC 29212
Escherichia coli MG1655 = system: Escherichia coli MG1655
[28] = system: Staphylococcus aureus ATCC 43300
[29] = system: Staphylococcus aureus MTCC 9542
Vibrio cholerae = system: Vibrio cholerae

**Q.** For `CC[C@H](C)[C@H](NC(=O)[C@H](CC(=O)O)NC(=O)[C@H](CCCCN)NC(=O)[C@H](Cc1c[nH]c2ccccc12)NC(=O)[C@H](CC(C)C)NC(=O)[C@H](C)N)C(=O)N[C@@H](CC(C)C)C(=O)N[C@@H](CCCCN)C(=O)N[C@@H](CC(N)=O)C(=O)N[C@H](C(=O)NCC(=O)N[C@@H](CCCCN)C(=O)N[C@@H](C)C(=O)N[C@@H](C)C(=O)NCC(=O)N[C@@H](CCCCN)C(=O)N[C@@H](C)C(=O)N[C@H](C(=O)N[C@@H](CC(C)C)C(=O)N[C@@H](CC(N)=O)C(=O)N[C@H](C(=O)N[C@H](C(=O)N[C@H](C(=O)N[C@@H](CC(=O)O)C(=O)N[C@@H](CCSC)C(=O)N[C@H](C(=O)N[C@@H](CC(N)=O)C(=O)N[C@@H](CCC(N)=O)C(N)=O)C(C)C)[C@@H](C)O)C(C)C)[C@@H](C)O)C(C)C)C(C)C` [ALWKDILKNVGKAAGKAVLNTVTDMVNQ], which MIC [1] is on record?
**A.** Its MIC is 5 µM (≈ 15 µg/mL).

**Q.** What about the MIC [2] of the same compound?
**A.** Its MIC is 2.3 µM (≈ 6.89 µg/mL).

**Q.** What about the MIC [3] of the same compound?
**A.** Its MIC is 5 µM (≈ 15 µg/mL).

**Q.** What about the MIC [4] of the same compound?
**A.** The MIC was 11.6 µM (≈ 34.8 µg/mL).

**Q.** And the MIC [5]?
**A.** Its MIC is 4.6 µM (≈ 13.8 µg/mL).

**Q.** What about the MIC [6] of the same compound?
**A.** Its MIC is 3 µM (≈ 8.99 µg/mL).

**Q.** What about the MIC [7] of the same compound?
**A.** The MIC was 3 µM (≈ 8.99 µg/mL).

**Q.** For `CC[C@H](C)[C@H](NC(=O)[C@H](CCCCN)NC(=O)[C@H](CCCCN)NC(=O)[C@H](Cc1ccccc1)NC(=O)[C@H](CC(C)C)NC(=O)[C@H](CCCCN)NC(=O)[C@H](CCCCN)NC(=O)[C@H](CC(C)C)NC(=O)[C@H](CCCCN)NC(=O)[C@H](CCCCN)NC(=O)[C@@H](N)Cc1ccccc1)C(=O)N[C@@H](CC(C)C)C(=O)N[C@@H](CCCCN)C(=O)N[C@@H](CC(C)C)C(=O)N[C@@H](CCCCN)C(N)=O` [FKKLKKLFKKILKLK], which MIC [8] is on record?
**A.** Its MIC is 8 µM and 16 µM.

**Q.** And the MIC [9]?
**A.** The MIC was 8 µM (≈ 15.2 µg/mL).

**Q.** What about the MIC [10] of the same compound?
**A.** The MIC was 4 µM and 8 µM.

**Q.** And the MIC [11]?
**A.** The MIC was 2 µM (≈ 3.81 µg/mL).

**Q.** And the MIC [12]?
**A.** The MIC was 1 µM and 2 µM.

**Q.** And the MIC [13]?
**A.** Its MIC is 8 µM and 16 µM.

**Q.** And the MIC [14]?
**A.** Its MIC is 1 µM and 2 µM.

**Q.** How did the MIC [1] turn out when `CC[C@H](C)[C@H](NC(=O)[C@H](CC(C)C)NC(=O)[C@H](CCCCN)NC(=O)[C@H](CC(C)C)NC(=O)[C@H](C)NC(=O)CNC(=O)[C@H](CCCCN)NC(=O)[C@H](C)NC(=O)[C@H](CC(C)C)NC(=O)[C@H](C)NC(=O)CNC(=O)[C@H](Cc1c[nH]c2ccccc12)NC(=O)[C@@H](N)Cc1ccccc1)C(=O)NCC(=O)N[C@@H](CO)C(=O)N[C@@H](CC(C)C)C(=O)N[C@@H](Cc1ccccc1)C(=O)N[C@@H](CO)C(=O)N[C@@H](CO)C(=O)N[C@@H](Cc1ccccc1)C(=O)N[C@@H](CO)C(=O)N[C@@H](CCCCN)C(=O)N[C@@H](CCCCN)C(=O)N[C@@H](CC(=O)O)C(=O)O` [FWGALAKGALKLIGSLFSSFSKKD] was run?
**A.** Its MIC is 12.5 µM (≈ 32.2 µg/mL).

**Q.** And the MIC [15]?
**A.** Its MIC is 19.4 µM (≈ 50 µg/mL).

**Q.** And the MIC [16]?
**A.** Its MIC is 18.7 µM (≈ 48.1 µg/mL).

**Q.** And the MIC [17]?
**A.** Its MIC is 18.7 µM (≈ 48.1 µg/mL).

**Q.** And the MIC [4]?
**A.** Its MIC is over 19.4 µM.

**Q.** And the MIC [6]?
**A.** Its MIC is 12.5 µM (≈ 32.2 µg/mL).

**Q.** Which MIC [18] does the source give for `CC(C)C[C@H](NC(=O)CNC(=O)CN)C(=O)N[C@@H](CCCCN)C(=O)N[C@@H](CCCCN)C(=O)N[C@@H](CC(C)C)C(=O)NCC(=O)N[C@@H](CCCCN)C(=O)N[C@@H](CCCCN)C(=O)N[C@@H](CC(C)C)C(=O)N[C@@H](CCC(=O)O)C(=O)NCC(=O)N[C@@H](C)C(=O)NCC(=O)N[C@@H](CCCCN)C(=O)N[C@@H](CCCN=C(N)N)C(=O)N[C@H](C(=O)N[C@@H](Cc1ccccc1)C(=O)N[C@@H](CC(N)=O)C(=O)N[C@@H](C)C(=O)N[C@@H](C)C(=O)N[C@@H](CCC(=O)O)C(=O)N[C@@H](CCCCN)C(=O)N[C@@H](C)C(=O)N[C@@H](CC(C)C)C(=O)N1CCC[C@H]1C(=O)O)C(C)C` [GGLKKLGKKLEGAGKRVFNAAEKALP] here?
**A.** Its MIC is 11 µM (≈ 29.6 µg/mL).

**Q.** How did the MIC (Citrobacter koseri) turn out when `CC[C@H](C)[C@H](N)C(=O)N[C@@H](CCCCN)C(=O)N[C@@H](Cc1c[nH]c2ccccc12)C(=O)N[C@@H](CCCCN)C(=O)N[C@@H](C)C(=O)N[C@H](C(=O)N[C@@H](CC(C)C)C(=O)N[C@@H](CC(=O)O)C(=O)N[C@@H](C)C(=O)N[C@H](C(=O)N[C@@H](CCCCN)C(=O)N[C@@H](CCCCN)C(=O)N[C@H](C(=O)N[C@H](C(N)=O)[C@@H](C)CC)C(C)C)C(C)C)[C@@H](C)CC` [IKWKAILDAVKKVI] was run?
**A.** Its MIC is 2.46 µM (≈ 4 µg/mL).

**Q.** What about the MIC (Escherichia coli BL21) of the same compound?
**A.** Its MIC is 4.92 µM (≈ 8 µg/mL).

**Q.** And the MIC (Escherichia coli JM109)?
**A.** The MIC was 4.92 µM (≈ 8 µg/mL).

**Q.** What about the MIC [19] of the same compound?
**A.** Its MIC is 19.7 µM (≈ 32 µg/mL).

**Q.** What about the MIC (Pseudomonas aeruginosa) of the same compound?
**A.** Its MIC is 118 µM (≈ 192 µg/mL).

**Q.** And the MIC (Salmonella enterica)?
**A.** Its MIC is 19.7 µM (≈ 32 µg/mL).

**Q.** And the MIC [20]?
**A.** Its MIC is 19.7 µM (≈ 32 µg/mL).

**Q.** What about the MIC [21] of the same compound?
**A.** The MIC was 19.7 µM (≈ 32 µg/mL).

**Q.** And the MIC [22]?
**A.** The MIC was at least 39.4 µM.

**Q.** And the MIC (Staphylococcus xylosus)?
**A.** The MIC was 1.23 µM (≈ 2 µg/mL).

**Q.** What about the MIC [23] of the same compound?
**A.** Its MIC is 7.38 µM (≈ 12 µg/mL).

**Q.** And the MIC [24]?
**A.** The MIC was 9.85 µM (≈ 16 µg/mL).

**Q.** With `NCCCC[C@H](N)C(=O)N[C@@H](Cc1c[nH]c2ccccc12)C(=O)N[C@@H](Cc1c[nH]c2ccccc12)C(=O)N[C@@H](Cc1c[nH]c2ccccc12)C(=O)N[C@@H](CCCN=C(N)N)C(=O)N[C@@H](Cc1c[nH]c2ccccc12)C(N)=O` [KWWWRW] as the compound, how does the MIC [25] read?
**A.** The MIC was 12.5 µM and 25 µM and 18.8 µM.

**Q.** Which results are given for `CC[C@H](C)[C@H](NC(=O)[C@H](CCCCN)NC(=O)[C@@H]1CCCN1C(=O)[C@H](CC(C)C)NC(=O)[C@H](Cc1ccccc1)NC(=O)[C@H](CC(N)=O)NC(=O)[C@H](C)NC(=O)[C@H](C)NC(=O)[C@H](CC(C)C)NC(=O)CNC(=O)[C@H](C)NC(=O)[C@H](CC(C)C)NC(=O)[C@H](CC(C)C)NC(=O)[C@@H]1CCCN1C(=O)[C@@H](N)CC(C)C)C(=O)N[C@@H](Cc1ccccc1)C(=O)N[C@@H](CS)C(=O)N[C@@H](CCCCN)C(=O)N[C@H](C(=O)N[C@H](C(=O)N[C@@H](CCCN=C(N)N)C(=O)N[C@@H](CCCCN)C(N)=O)[C@@H](C)O)[C@@H](C)CC` [LPLLAGLAANFLPKIFCKITRK]?
**A.** MIC [26]: 5.15 µM (≈ 12.5 µg/mL); MIC [27]: 41.2 µM (≈ 100 µg/mL); MIC (Escherichia coli MG1655): 2.57 µM (≈ 6.25 µg/mL); MIC [28]: 20.6 µM (≈ 50 µg/mL); MIC [29]: 2.57 µM (≈ 6.25 µg/mL); MIC (Vibrio cholerae): 5.15 µM (≈ 12.5 µg/mL)
